Experimental data as given in US20230365568A1, “PLK1 POLO BOX DOMAIN INHIBITORS AND METHOD OF TREATING CANCER” (The United States of America,as represented by the …, priority 2020, published 2023).
Like-named read-outs stand apart in the source and are kept apart here.

How the values were obtained:
[1] = tested on: multiple myeloma-derived L363 cells; assay: MTS cell proliferation assay in L363 cells; format: cell-based; details: Homo sapiens, L-363, 48 h treatment, read-out: Cell efficacy, GI50 ± sd
Procedure: MTS Assay. […] 96™ AQueous One Solution Cell Proliferation Assay (MTS) kit (Promega, WI). Briefly, asynchronously growing L363 cells cultured in a 96-well plate were treated with the indicated compounds for 48 h.

[2] = Microsomal metabolic stability, rat liver microsomes (RLM); details: rat liver microsomes
[3] = target: full-length human Plk1 (Homo sapiens (Human), UniProt P53350); assay: ELISA-based Plk1 PBD-binding inhibition assay; details: for IC50: Plk1 PBD, n = 3 unless noted
Procedure: An ELISA-based PBD-binding inhibition assay was performed essentially as described previously. […] The wells were washed once with PBS+0.05% Tween20 (PBST) and incubated with 200 μl of PBS plus 1% BSA (blocking buffer) for 1 h to prevent non-specific binding. HEK293A lysates expressing HA-EGFP-Plk1 were prepared in a TBSN [20 mM Tris-HCl (pH 8.0), 150 mM NaCl, 0.5% NP-40, 5 mM EGTA, 2 mM MgCl2, 1.5 mM EDTA, and protease inhibitor cocktail (Roche)]+20% DMSO buffer (˜20 μg total lysates in 100 μl buffer), mixed with the indicated amount of the competitors (p-T78 peptide and its derivative compounds) for 30 min, provided onto the biotinylated peptide-coated ELISA wells, and then incubated with constant rocking for 1 h at 25° C. Following the incubation, ELISA plates were washed 5 times with PBST. To detect bound HA-EGFP-Plk1, the plates were probed for 2 h with 100 μl/well of anti-HA antibody at a concentration of 0.5 μg/ml in the blocking buffer and then washed 5 times. The plates were further probed for 1 h with 100 μl/well of HRP-conjugated secondary antibody (GE Healthcare) at a 1:1,000 dilution in the blocking buffer. The plates were washed 5 times with PBST and incubated with 100 μl/well of 3,3′,5,5′-tetramethylbenzidine solution (Sigma-Aldrich, St. Louis, MO) as substrate until a desired absorbance was reached. The reactions were stopped by the addition of 100 μl/well of stop solution (Cell Signaling Technology, Danvers, MA). The optical density (O.D.) was measured at 450 nm by using a Perkin-Elmer Enspire Multimode Plate reader (PerkinElmer, Inc., Boston, MA). Data obtained from more than three independent experiments were analyzed by GraphPad (San Diego, CA) Prism software version 7.
ELISA-based PBD-binding Inhibition Assay. […] The reaction products were measured at 450 nm by using a Perkin-Elmer Enspire Multimode Plate reader (PerkinElmer, Inc., Boston, MA). Data obtained from more than three independent experiments were analyzed by GraphPad (San Diego, CA) Prism software version 7.

[4] = Aqueous solubility; details: aqueous solubility
[5] = PAMPA permeability

Chain of full-length human Plk1 (P53350 whole entry): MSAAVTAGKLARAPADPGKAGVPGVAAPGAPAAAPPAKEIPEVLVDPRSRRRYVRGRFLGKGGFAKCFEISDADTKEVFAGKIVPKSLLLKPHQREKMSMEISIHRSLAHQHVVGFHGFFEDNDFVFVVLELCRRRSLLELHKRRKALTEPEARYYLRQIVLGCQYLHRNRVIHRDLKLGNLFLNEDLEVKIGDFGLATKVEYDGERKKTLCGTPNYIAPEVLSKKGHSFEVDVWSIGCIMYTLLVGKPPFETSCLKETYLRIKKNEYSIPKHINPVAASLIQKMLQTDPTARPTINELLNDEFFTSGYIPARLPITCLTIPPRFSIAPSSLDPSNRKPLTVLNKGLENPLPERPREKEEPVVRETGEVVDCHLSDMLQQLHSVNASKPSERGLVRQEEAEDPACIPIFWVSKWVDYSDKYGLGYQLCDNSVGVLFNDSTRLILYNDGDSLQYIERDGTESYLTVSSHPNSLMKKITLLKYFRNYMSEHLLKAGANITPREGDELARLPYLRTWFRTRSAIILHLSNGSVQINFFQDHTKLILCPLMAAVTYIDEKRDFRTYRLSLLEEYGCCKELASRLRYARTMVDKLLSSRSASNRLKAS

| SMILES | t1/2 (min, RLM) [2] | Solub. [4] | PAMPA | PAMPA [5] | further results |
| --- | --- | --- | --- | --- | --- |
| CCCn1c(=O)c2sc(C)cc2n2c(Sc3c([N+](=O)[O-])ncn3C)nnc12 [75 (NCK173), 7-methyl-1-((1-methyl-4-nitro-1H-imidazol-5-yl)thio)-4-propylthieno[2,3-e][1,2,4]triazolo[4,3-a]pyrimidin-5(4H)-one] |  |  |  |  | GI50 [1]: 4140 ± 310 nM |
| CCCCn1c(=O)c2ccccc2n2c(=S)[nH]nc12 [compound 23] | >30 min | 8.5 µg/mL | 77.5 ×10⁻⁶ cm/s |  | IC50 [3]: 1.03 ± 0.14 µM |
| CCCn1c(=O)c2sc(C)cc2n2c(Sc3c(S(N)(=O)=O)ncn3C)nnc12 [77 (NCK175), 1-methyl-5-((7-methyl-5-oxo-4-propyl-4,5-dihydrothieno[2,3-e][1,2,4]triazolo[4,3-a]pyrimidin-1-yl)thio)-1H-imidazole-4-sulfonamide] |  |  |  |  | GI50 [1]: > 400000 nM |
| Cc1cccc(-n2c(=O)c3ccccc3n3c(=S)[nH]nc23)c1C [compound 33] |  |  |  |  | IC50 [3]: 1.85 ± 0.12 µM |
| O=C(Cc1ccccn1)NCCCn1c(=O)c2cc(F)ccc2n2c(=S)[nH]nc12 [compound 136, N-(3-(7-Fluoro-5-oxo-1-thioxo-1,2-dihydro-[1,2,4]triazolo[4,3-a]quinazolin-4(5H)-yl)propyl)-2-(pyridine-2-yl)acetamide] | >30 min | 41.4 µg/mL |  | 68.0 ×10⁻⁶ cm/s |  |
| CCCn1c(=O)c2ccccc2n2c(=S)n(CC(=O)c3ccccc3)nc12 [compound 39] |  |  |  |  | IC50 [3]: > 50 µM |
| O=C(Cc1ccncc1)NCCCn1c(=O)c2cc(F)ccc2n2c(=S)[nH]nc12 [compound 138, N-(3-(7-fluoro-5-oxo-1-thioxo-1,2-dihydro-[1,2,4]triazolo[4,3-a]quinazolin-4(5H)-yl)propyl)-2-(pyridine-4-yl)acetamide] | >30 min | 9.6 µg/mL |  | <1 ×10⁻⁶ cm/s |  |
| O=C(Cc1cccnc1)NCCCn1c(=O)c2cc(F)ccc2n2c(=S)[nH]nc12 [compound 137, N-(3-(7-Fluoro-5-oxo-1-thioxo-1,2-dihydro-[1,2,4]triazolo[4,3-a]quinazolin-4(5H)-yl)propyl)-2-(pyridine-3-yl)acetamide] | >30 min | 31.8 µg/mL |  | 21.0 ×10⁻⁶ cm/s |  |
| O=C(Cc1ccccc1)NCCCn1c(=O)c2cc(F)ccc2n2c(=S)[nH]nc12 [compound 120, N-(3-(7-fluoro-5-oxo-1-thioxo-1,2-dihydro-[1,2,4]triazolo[4,3-a]quinazolin-4(5H)-yl)propyl)-2-phenylacetamide] | 18.7 min | 31.7 µg/mL |  | 248 ×10⁻⁶ cm/s |  |
| C=CCn1c(=O)c2ccccc2n2c(=S)[nH]nc12 [compound 22] |  | 19.4 µg/mL |  |  | IC50 [3]: 1.31 ± 0.03 µM |
| COc1ccccc1CC(=O)NCCCn1c(=O)c2cc(F)ccc2n2c(=S)[nH]nc12 [compound 128, N-(3-(7-fluoro-5-oxo-1-thioxo-1,2-dihydro-[1,2,4]triazolo[4,3-a]quinazolin-4(5H)-yl)propyl)-2-(2-methoxyphenyl)acetamide] | 16.1 min | >65 µg/mL |  | 379 ×10⁻⁶ cm/s |  |
| CCCCCn1c(=O)c2ccccc2n2c(=S)[nH]nc12 [compound 24] |  | 4.2 µg/mL |  |  | IC50 [3]: 1.97 ± 0.11 µM |
| O=C(Cc1ccc(Br)cc1)NCCCn1c(=O)c2cc(F)ccc2n2c(=S)[nH]nc12 [compound 125, 2-(4-bromophenyl)-N-(3-(7-fluoro-5-oxo-1-thioxo-1,2-dihydro-[1,2,4]triazolo[4,3-a]quinazolin-4(5H)-yl)propyl)acetamide] | 20.6 min | <1 µg/mL |  | 767 ×10⁻⁶ cm/s |  |
| O=c1c2cc(F)ccc2n2c(=S)[nH]nc2n1CCc1ccccn1 [compound 83] | >30 min | 13.0 µg/mL | 355 ×10⁻⁶ cm/s |  | PAMPA permeability (pH 7.4): moderate to good permeability |
| O=c1c2cc(F)ccc2n2c(=S)[nH]nc2n1CCc1ccc(Cl)cc1 [compound 82] | >30 min | 1.2 µg/mL | <1 ×10⁻⁶ cm/s |  |  |
| O=C(Cc1cccc(F)c1)NCCCn1c(=O)c2cc(F)ccc2n2c(=S)[nH]nc12 [compound 122, N-(3-(7-fluoro-5-oxo-1-thioxo-1,2-dihydro-[1,2,4]triazolo[4,3-a]quinazolin-4(5H)-yl)propyl)-2-(3-fluorophenyl)acetamide] | 26.5 min | >63 µg/mL |  | 364 ×10⁻⁶ cm/s |  |
| O=C(Cc1ccccc1C(F)(F)F)NCCCn1c(=O)c2cc(F)ccc2n2c(=S)[nH]nc12 [compound 131, N-(3-(7-fluoro-5-oxo-1-thioxo-1,2-dihydro-[1,2,4]triazolo[4,3-a]quinazolin-4(5H)-yl)propyl)-2-(2-(trifluoromethyl)phenyl)acetamide] | 3.7 min | 40.3 µg/mL |  | 825 ×10⁻⁶ cm/s |  |
| COCCCn1c(=O)c2ccccc2n2c(=S)[nH]nc12 [compound 28] |  | 31.2 µg/mL |  |  | IC50 [3]: 1.75 ± 0.19 µM |
| CCOCCCn1c(=O)c2ccccc2n2c(=S)[nH]nc12 [compound 29] |  | 15.5 µg/mL |  |  | lower IC50 compared to 14 ([3]; ELISA assay): 29%; IC50 [3]: 1.68 ± 0.11 µM |
| O=c1c2ccccc2n2c(=S)[nH]nc2n1CCC(F)(F)F [compound 27] | >30, min | 23.3 µg/mL | 82 ×10⁻⁶ cm/s |  |  |
| O=c1c2cc(F)ccc2n2cnnc2n1CCc1ccccc1 [compound 18] | 11.8 min | 14.8 µg/mL | 924 ×10⁻⁶ cm/s |  |  |
| CNC(=S)N1CN(CCc2ccccc2)C(=O)c2cc(F)ccc21 [compound 62] | 2.2 min | 4.5 µg/mL | 161 ×10⁻⁶ cm/s |  |  |
| O=c1c2cc(Cl)ccc2n2c(=S)[nH]nc2n1CCC(F)(F)F [compound 55] | >30 min | 5.1 µg/mL | 257 ×10⁻⁶ cm/s |  |  |
| N#Cc1ccccc1CC(=O)NCCCn1c(=O)c2cc(F)ccc2n2c(=S)[nH]nc12 [compound 133, 2-(2-cyanophenyl)-N-(3-(7-fluoro-5-oxo-1-thioxo-1,2-dihydro-[1,2,4]triazolo[4,3-a]quinazolin-4(5H)-yl)propyl)acetamide] | >30 min | 20.9 µg/mL |  | 156 ×10⁻⁶ cm/s |  |
| Cc1ccc(CC(=O)NCCCn2c(=O)c3cc(F)ccc3n3c(=S)[nH]nc23)cc1 [compound 126, N-(3-(7-fluoro-5-oxo-1-thioxo-1,2-dihydro-[1,2,4]triazolo[4,3-a]quinazolin-4(5H)-yl)propyl)-2-(p-tolyl)acetamide] | 23.9 min | 12.9 µg/mL |  | 621 ×10⁻⁶ cm/s |  |
| O=c1c2cc(F)ccc2n2c(=S)[nH]nc2n1CCN1CCC(F)(F)CC1 [compound 89] | >30 min | 20.2 µg/mL | 234 ×10⁻⁶ cm/s |  |  |
| CC(C)CCn1c(=O)c2ccccc2n2c(=S)[nH]nc12 [compound 25] |  | 8.0 µg/mL |  |  | IC50 [3]: 1.73 ± 0.08 µM |
| CC(C)(C)OC(=O)Nc1ccc(CC(=O)NCCCn2c(=O)c3cc(F)ccc3n3c(=S)[nH]nc23)cc1 [compound 135, tert-butyl (4-(2-((3-(7-fluoro-5-oxo-1-thioxo-1,2-dihydro-[1,2,4]triazolo[4,3-a]quinazolin-4(5H)-yl)propyl)amino)-2-oxoethyl)phenyl)carbamate] | >30 min | 17.4 µg/mL |  | 910 ×10⁻⁶ cm/s |  |
| O=C(NCCCn1c(=O)c2cc(F)ccc2n2c(=S)[nH]nc12)C1CCCC1 [compound 108] | >30 min | >58 µg/mL | 155 ×10⁻⁶ cm/s |  |  |
| O=C(Cc1cccc(Cl)c1)NCCCn1c(=O)c2cc(F)ccc2n2c(=S)[nH]nc12 [compound 124, 2-(3-chlorophenyl)-N-(3-(7-fluoro-5-oxo-1-thioxo-1,2-dihydro-[1,2,4]triazolo[4,3-a]quinazolin-4(5H)-yl)propyl)acetamide] | 8.4 min | >66 µg/mL |  | 861 ×10⁻⁶ cm/s |  |
